Measured values: paper PMC12692861, “Biotin-Linked Ursolic Acid Conjugates as Selective Anticancer Agents and Target-Identification Tools for Cancer Therapy” (Molecules, 2025)
Where two headings read alike, the source gives them in different places.

Legend:
HSP 90-beta (HSP90β) = HSP 90-beta (HSP90β) (Mus musculus, UniProt P11499); experiment: Streptavidin pulldown proteomics (LC-MS/MS), MB49 cells; assay type: binding, murine; settings: MB-49, 50 µM
Procedure: (§1) We used proteomics to identify potential molecular targets of 5c. A pulldown assay with streptavidin-agarose-coated magnetic beads was performed. Briefly, 5637 and MB49 cells were incubated with 50 µM 5c for 10 min and 1 h. After incubation, the cells were rinsed three times with cold phosphate-buffered saline (PBS), and cell lysates were prepared and clarified by centrifugation to remove cellular debris, including nuclei. The clarified lysates were incubated with streptavidin-coated magnetic beads to selectively bind biotinylated contents. Bound proteins were separated from unbound proteins through thorough bead washing. Proteins attached to the beads were eluted and analyzed on an Orbitrap Fusion Tribrid mass spectrometer (Thermo Scientific, New York, NY, USA) coupled with an Ultimate 3000 nano-UPLC system. Samples were trapped on a PepMap100 C18 trap column (5 µm, 0.3 × 5 mm) and separated on a PepMap RSLC C18 column (2 µm, 75 µm × 150 mm) using a gradient from 2 to 40% acetonitrile with 0.1% formic acid over 120 min at […] and 40 °C. MS data were acquired in positive mode using data-dependent acquisition (DDA), with precursor scans at 120,000 FWHM (400–2000 m/z), and MS/MS scans in top-speed mode (3 s cycle) using HCD fragmentation (NCE 32%). Proteins were identified and quantified based on peptide spectral matches (PSMs), and fold enrichment compared to controls was calculated to evaluate interaction strength.
(§2) The 5637 and MB49 cells were cultured and treated with higher concentrations of 5c (50 µM) for short period of times (10 min & 60 min) followed by whole cell lysis (WCL) preparation of both treated and untreated cells using modified RIPA buffer [NaCl (100mM), TrisCl (20mM, pH 7.4), EDTA (10 mM), TritonX-100 (0.5%), Glycerol (5%), Protease inhibitor cocktail (1x)] with gentle continuous rotation. The protein content of each WCL was estimated using Pierce™ BCA Protein Assay kit (Thermo-Scientific # 23225). The 100 µL of resuspended Dynabeads™ MyOne™ Streptavidin C1 (Invitrogen # 65001) were washed with PBST (PBS with 0.01% Tween™20) in a magnet stand as recommended in the manufacturer’s instructions. The washed beads were incubated with 200 µg of each WCL in separate tubes at room temperature for 2 h in a gentle end-over-end mixing. After incubation, beads were washed 3–5 times with PBST (0.01% Tween-20) on a magnetic stand and beads were decanted by after spinning and magnetization. The samples were stored at −80 °C till further analysis using LC-MS/MS by the Proteomics and Mass Spectrometry Core Laboratory of Augusta University.

Histone H2B type 1-M = Histone H2B type 1-M (Mus musculus, UniProt P10854); experiment: as above; assay type: binding, murine; settings: MB-49, 50 µM
Procedure: as §1, §2

[1] = system: Coiled-coil domain-containing protein; experiment: as above; assay type: binding, murine; settings: MB-49, 50 µM
Procedure: as §1, §2

Histone H4 = Histone H4 (Mus musculus, UniProt P62806); experiment: as above; assay type: binding, murine; settings: MB-49, 50 µM
Procedure: as §1, §2

[2] = biological target: Receptor of activated protein C kinase 1 (RACK1) (Mus musculus, UniProt P68040); experiment: as above; assay type: binding, murine; settings: MB-49, 50 µM
Procedure: as §1, §2

HSP 90-alpha (HSP90α) = HSP 90-alpha (HSP90α) (Mus musculus, UniProt P07901); experiment: as above; assay type: binding, murine; settings: MB-49, 50 µM
Procedure: as §1, §2

[3] = biological target: Heterogeneous nuclear ribonucleoprotein U (HNRNPU) (Mus musculus, UniProt Q8VEK3); experiment: as above; assay type: binding, murine; settings: MB-49, 50 µM
Sequence of Heterogeneous nuclear ribonucleoprotein U (HNRNPU) (Q8VEK3 whole entry): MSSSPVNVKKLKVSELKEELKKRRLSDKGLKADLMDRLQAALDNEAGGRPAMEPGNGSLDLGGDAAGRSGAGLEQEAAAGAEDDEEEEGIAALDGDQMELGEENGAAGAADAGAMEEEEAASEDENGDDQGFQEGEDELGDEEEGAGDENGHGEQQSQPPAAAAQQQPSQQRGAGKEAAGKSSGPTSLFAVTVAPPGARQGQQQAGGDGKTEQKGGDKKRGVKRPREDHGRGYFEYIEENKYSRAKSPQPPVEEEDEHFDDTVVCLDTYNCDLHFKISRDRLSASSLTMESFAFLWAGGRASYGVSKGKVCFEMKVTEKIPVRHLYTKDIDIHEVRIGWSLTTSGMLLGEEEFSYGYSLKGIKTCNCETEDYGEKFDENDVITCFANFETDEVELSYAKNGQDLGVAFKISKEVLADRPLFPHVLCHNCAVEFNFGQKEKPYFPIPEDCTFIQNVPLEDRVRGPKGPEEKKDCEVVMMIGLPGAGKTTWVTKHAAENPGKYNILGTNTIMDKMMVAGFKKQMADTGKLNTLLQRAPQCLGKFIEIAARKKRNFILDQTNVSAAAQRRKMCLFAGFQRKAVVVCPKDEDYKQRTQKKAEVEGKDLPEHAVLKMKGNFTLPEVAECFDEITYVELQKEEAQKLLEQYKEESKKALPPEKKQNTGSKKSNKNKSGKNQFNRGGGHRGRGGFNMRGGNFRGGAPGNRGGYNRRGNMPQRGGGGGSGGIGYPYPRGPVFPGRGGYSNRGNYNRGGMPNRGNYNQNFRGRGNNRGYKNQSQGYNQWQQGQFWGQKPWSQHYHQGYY
Procedure: as §1, §2

MCF-12A = experiment: MTT assay, non-tumorigenic breast epithelial cell line; assay type: cell-based, human; settings: for IC50: Homo sapiens, MCF-12A, MTT, 72 h, non-tumorigenic cells, read-out: IC50 (Mean ± SD), MCF-12A
Procedure: The synthesized hybrid conjugates 5a–d were evaluated for their antiproliferative activity against the established human bladder cancer cell lines T24 and 5637. Test compounds were dissolved in ultrapure dimethyl sulfoxide (DMSO), diluted in cell culture media, added to cells cultured in 96-well cluster wells, and incubated for 72 h. The concentration of DMSO in culture media was maintained at < 0.05%. As previously reported, the fraction of viable cells in the culture wells was compared to that in cultures with 0.05% DMSO-only using a colorimetric assay, the Methyl Tetrazolium Bromide (MTT) reduction assay. We determined the selectivity index (SI) of the compounds 5a–d against tumor cells by comparing their cytotoxicity to that of a non-tumorigenic breast epithelial cell line, MCF-12A, as well as a non-tumorigenic, immortalized urothelial cell line, UROtsa (Table 1, and Figure 2).
The antiproliferative activities of various compounds examined in this report were measured using the MTT (3-[4,5-dimethylthiazol-2-yl]-2,5-diphenyl-tetrazolium bromide) reduction assay, as previously described. Briefly, cells were seeded at 2 × 10^3 cells per well in a 96-well plate and cultured overnight. The cells were then treated with different doses (5 µM, 10 µM, 15 µM, 20 µM, 25 µM, 30 µM, 35 µM, 40 µM in DMSO) for 72 h. Viability of the treated cultures was estimated by conversion of MTT to the insoluble formazan after 3h incubation at 37 °C and 5% CO2. The purple-colored formazan crystals were dissolved in DMSO, and absorbance was recorded at wavelengths 570/640 nm using the Bio-Rad Benchmark Plus Microplate Reader. The percent of viable cells was calculated ODtreated cells/ODcontrol cell wells × 100.

5637 cells = experiment: Annexin V-FITC/PI apoptosis flow cytometry; assay type: cell-based; settings: Homo sapiens, 24 h, read-out: Q3-3 (Q3, viable) cells
Procedure: The potential of cells treated with UA or 5c to undergo dose-dependent apoptosis was explored using quantitative flow cytometric analysis, as shown in Figure 4. Utilizing a kit that detects quantitative binding of Annexin V to externalized phosphatidyl serine during the apoptosis cascade and permeability of Propidium iodide (PI) in cells undergoing cell death, we determined the cells at various stages of cell death following 24h incubation with UA and 5c in various bladder cancer cells.
We used a fluorescence-based Annexin V binding assay to determine the fraction of the cell population undergoing early and late apoptosis due to the cytotoxicity of the drugs. Cells plated in a 60 mm dish overnight at 0.3 × 10^6 cells/well were incubated with the selected drug at several doses for 24 h. Subsequently, treated cells were labeled with FITC-Annexin V using a kit (eBioscience™ Annexin V Apoptosis Detection Kits; Invitrogen # 88-8005-72, Thermo Fisher Scientific, Seoul, Korea) as per the manufacturer’s instructions. Intact cell suspension labeled with FITC-Annexin V and PI was run on the NovoCyte Quanteon flow cytometer, and data were acquired in list mode. Acquired data were analyzed using NovoExpress software (version 1.6.1). Cells treated with Staurosporine (0.2 µM) act as a positive control.

Sequence of HSP 90-beta (HSP90β) (P11499 whole entry, the tested form may be a part): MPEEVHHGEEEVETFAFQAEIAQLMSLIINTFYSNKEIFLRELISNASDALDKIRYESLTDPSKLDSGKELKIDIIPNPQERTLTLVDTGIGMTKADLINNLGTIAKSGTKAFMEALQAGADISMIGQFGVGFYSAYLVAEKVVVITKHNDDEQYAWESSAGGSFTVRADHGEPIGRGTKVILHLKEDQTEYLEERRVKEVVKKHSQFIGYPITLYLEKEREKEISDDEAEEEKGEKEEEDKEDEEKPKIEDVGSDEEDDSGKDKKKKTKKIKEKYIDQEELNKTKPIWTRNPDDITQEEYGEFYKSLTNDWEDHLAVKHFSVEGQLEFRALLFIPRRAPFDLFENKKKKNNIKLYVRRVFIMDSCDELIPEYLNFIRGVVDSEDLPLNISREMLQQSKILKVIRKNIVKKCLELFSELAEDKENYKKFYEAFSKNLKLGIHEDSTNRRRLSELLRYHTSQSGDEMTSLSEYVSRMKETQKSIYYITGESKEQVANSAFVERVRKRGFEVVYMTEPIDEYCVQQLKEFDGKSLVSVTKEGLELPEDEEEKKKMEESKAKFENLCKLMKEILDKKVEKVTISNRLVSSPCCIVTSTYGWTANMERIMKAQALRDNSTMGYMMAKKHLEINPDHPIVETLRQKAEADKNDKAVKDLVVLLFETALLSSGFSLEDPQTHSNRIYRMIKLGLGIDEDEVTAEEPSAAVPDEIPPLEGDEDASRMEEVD

Fold Change 10 min/Ctrl (HSP 90-beta (HSP90β))	Fold Change 1 h/Ctrl (HSP 90-beta (HSP90β))	Fold Change 10 min/Ctrl (Histone H2B type 1-M)	Fold Change 1 h/Ctrl (Histone H2B type 1-M)	Fold Change 10 min/Ctrl (Histone H4)	Fold Change 1 h/Ctrl (Histone H4)	Fold Change 10 min/Ctrl [2]	Fold Change 1 h/Ctrl [2]	Fold Change 10 min/Ctrl (HSP 90-alpha (HSP90α))	Fold Change 1 h/Ctrl (HSP 90-alpha (HSP90α))	Fold Change 10 min/Ctrl [3]	Fold Change 1 h/Ctrl [3]	SMILES	Fold Change 10 min/Ctrl [1]	Fold Change 1 h/Ctrl [1]	IC50 (MCF-12A) [µM]	toxicity to non-tumorigenic cells (MCF-12A; MCF12A)	viability at 10 µM (5637 cells; 5637, 10 µM) [%]	viability at 15 µM (5637 cells; 5637, 15 µM) [%]	viability at 10 µM (5637 cells) [%]	viability at 15 µM (5637 cells) [%]
1.40	1.71	2.04	1.81	1.64	1.18	0.88	1.29	1.07	1.25	2.38	2.13	CC1CCC2(C(=O)OCCCCOC(=O)CCCCC3SCC4NC(=O)NC43)CCC3(C)C(=CCC4C5(C)CCC(O)C(C)(C)C5CCC43C)C2C1C [Compound 5c, 4-((5-((3aS,4S,6aR)-2-Oxohexahydro-1H-thieno [3,4-d]imidazol-4-yl)pentanoyl)oxy) butyl 3-hydroxy-urs-12-en-28-oate]	0	0	83.11 ± 0.3	not toxic	33	27.9	–	–
–	–	–	–	–	–	–	–	–	–	–	–	C[C@H]1[C@H](C)CC[C@]2(C(=O)O)CC[C@]3(C)C(=CC[C@@H]4[C@@]5(C)CC[C@H](O)C(C)(C)[C@@H]5CC[C@]43C)[C@H]12 [UA, Ursolic acid]	–	–	56.4 ± 7.6	–	–	–	69.5	64.6
